{
  "source": "paper PMC6269653",
  "about": "“Stability and Antioxidant Activity of Semi-synthetic Derivatives of 4-Nerolidylcatechol” (Molecules, 2012)",
  "key": {"[1]": {"test_system": "Artemia franciscana", "experiment": "Brine shrimp assay", "conditions": "in vivo"}, "[2]": {"experiment": "Brine shrimp assay", "design": "species or system Artemia franciscana", "conditions": "Artemia franciscana (brine shrimp), in vivo; read-out: Toxicity Brine shrimp (Artemia franciscana) (LC50)"}, "[3]": {"experiment": "ABTS radical-scavenging activity", "format": "biochemical", "conditions": "compounds tested at 250 µM; mean ± standard deviation, n = 3", "description": "The ABTS assay used herein was based on the method of Re et al. with slight modifications. Substances at concentrations of 250 µM, BHT or BHA were added to dilute ABTS solution and the absorbance at […] was measured. The antioxidant activity was calculated using the equation: % inhibition = 100 × (1 − sample abs/control abs)."}, "[4]": {"test_system": "Plasmodium berghei", "conditions": "oral doses of 1–10 mg/kg/day (2.5–25 µmol/kg/day), 4-day suppressive test; cited from earlier work"}, "[5]": {"test_system": "human leukemia cells (HL-60 and CEM)", "design": "method as in ref 1 = [1]; 1. Pinto A.C.S. Pessoa C.O. Costa-Lotufo L.V. Moraes M.O. Moraes M.E.A. Cavalcanti B.C. Nunomura S.M. Pohlit A.M. In vitro cytotoxicity of Pothomorphe peltata (L.) Miquel (Piperaceae), isolated 4-nero", "conditions": "cited from earlier work"}, "[6]": {"experiment": "DPPH radical-scavenging activity", "format": "biochemical", "conditions": "compounds tested at 250 µM; mean ± standard deviation, n = 3", "description": "The measurement of the scavenger activity of DPPH• was carried out according to the method of Molineux with modifications. Substances at 250 µM were added, at an equal volume, to the methanol solution of DPPH• ([…]). After 15 min at room temperature, the absorbance was recorded at 517 nm (sample abs). The experiment was repeated three times. BHT, BHA were used as controls. Values denote percentage of DPPH free radical inhibition. The antioxidant activity was calculated using the equation: % inhibition = 100 × (1 − sample abs/control abs)."}, "[7]": {"test_system": "3T3L1 mouse embryonic fibroblast cell line", "experiment": "Cellular antioxidant activity (oxidation of DCFH-DA)", "format": "cell-based", "design": "inhibition of the oxidation of DCFH-DA in 3T3L1 cells: concentration or dose not given beside the values", "conditions": "over the observation period of 60 min", "description": "These tests evaluate the reducing effect of a given substance on the radical species formed in situ during these assays leading to a decrease in color versus controls that is measured spectrophotometrically. […] Thus, at a concentration of 250 µM, 4-NC inhibited DPPH• and ABTS+• by 97% and 95%, respectively. Mono-O-substituted 4-NC derivatives 2–5 inhibited ABTS+• by 89–93%. […] The antioxidant activity was also evaluated in mouse embryonic 3T3L1 fibroblasts. In this assay DCFH-DA (2',7'-dichlorofluorescein diacetate) is hydrolyzed by intracellular esterases and then oxidized by reactive oxygen species (ROS) to the fluorescent compound 2'-7'-DCF. An active antioxidant substance can inhibit the transformation of fatty acids to fatty acid hydroperoxides in the cell membranes and thereby inhibit the oxidation of DCFH-DA.\nThe antioxidant activity of 4-NC and semi-synthetic derivatives of 4-NC was evaluated on the 1st and 30th days after dissolving the substances in DMSO at a concentration of 10 mM and storage in a freezer at −20 °C. This experiment permitted the evaluation of the relative stability of the antioxidant activity of 4-NC, derivatives of 4-NC, BHT and BHA. Thus, cellular antioxidants were evaluated using the mouse embryonic fibroblast 3T3L1 cell line. […] The presence of mono-O or di-O,O substituent groups in the 4-NC derivatives can confer stability relative to 4-NC. Such chemical stability is highly desirable when contemplating the use of such substances in cosmetic and pharmaceutical formulations and foods. Here, 4-NC dissolved in DMSO lost more than 80% of its antioxidant activity after 30 days in the freezer.\nIntracellular ROS production was detected using the non-fluorescent cell permeating compound, 2'7'-dichlorofluorescein diacetate (DCF-DA), as described by Wolfe and Liu. DCF-DA is hydrolyzed by intracellular esterases and then oxidized by hydroperoxides into the fluorescent compound, 2'-7'-DCF. 3T3-L1 cells were seeded at a density of 6 × 10^4 cells/well in a 96-well microplate in 100 μL of growth medium. 24 h after seeding, the growth medium was removed and the wells were washed with PBS. Then, a 10 μM solution of DCFH-DA dissolved in Hank’s buffer (100 μL) was added to wells and incubated for 30 min at 37 °C and 5% CO2. The cells were washed first with PBS (100 μL) then EEP (100 µL) and samples having different concentrations were added. The fluorescence was immediately measured at an excitation wavelength of 485 nm and emission wavelength of 520 nm over 60 min at 5 min intervals. Controls with/without DCFH-DA were prepared and subjected to analogous procedures. Quercetin, BHA and BHT were used as positive controls of antioxidant activity."}},
  "note": "Marks after values point to notes of the source that are not given here.",
  "data": [
    {"compound": "C=CC(C)(CC/C=C(\\C)CCC=C(C)C)c1ccc(OC(C)=O)c(OC(C)=O)c1", "note": "(stereo not shown) [Compound 7, O,O-diacetyl-4-nerolidylcatechol]", "values": [
      {"measurement": "cytotoxic activity against Artemia franciscana in the brine shrimp assay", "setting": "[1]", "result": "moderately toxic"},
      {"measurement": "LC50", "setting": "[2]", "result": 83, "unit": "µM"},
      {"measurement": "ABTS (%) percentage of inhibition", "setting": "[3]", "result": "8.60 ± 0.10 ^b %"},
      {"measurement": "in vivo inhibitory activity in P. berghei-infected mice", "setting": "[4]", "result": "significant in vivo inhibitory activity"},
      {"measurement": "IC50", "setting": "[5]", "result": "15.5 to 15.6", "unit": "µM"},
      {"measurement": "DPPH• (%) percentage of inhibition", "setting": "[6]", "result": "6.36 ± 1.15 ^c %"},
      {"measurement": "inhibition of the oxidation of DCFH-DA in 3T3L1 cells", "setting": "[7]", "result": "≥ 20", "unit": "%"}
    ]}
  ]
}
